The source made the active and inactive calls. No rule for the calls is given here.

For the data set, the system named is CCRIS mutagenicity, Ames/micronucleus/aberration tests. Briefly: CCRIS mutagenicity studies.

In the case of `CCCCCCCCCCCCCCCC(=O)OC/C=C(C)/C=C/C=C(C)/C=C/C1=C(C)CCCC1(C)C`, the mutagenic call (End Point: IN VIVO CHROMOSOMAL ABERRATIONS, Test System: BONE MARROW CELLS, Species: RAT, Strain/Sex: WISTAR/MALE, FEMALE, Route: ORAL (GAVAGE)) is “active; positive (structural changes; abnormal metaphase)”; the mutagenic call (End Point: IN VIVO CHROMOSOMAL ABERRATIONS, Test System: BONE MARROW, Species: RAT, Strain/Sex: WISTAR/MALE, FEMALE, Route: GAVAGE) was “active; positive (structural changes)”; the mutagenic call (End Point: IN VIVO MICRONUCLEUS, Test System: BONE MARROW POLYCHROMATIC ERYTHROCYTES, Species: MOUSE, Strain/Sex: DDY/MALE, Route: IP) was “inactive; negative”; the mutagenic call (Test System: AMES SALMONELLA TYPHIMURIUM, Strain/Indicator: TA98, Metabolic Activation: NONE, Method: STANDARD PLATE) was “inactive; negative”; the mutagenic call (Test System: AMES SALMONELLA TYPHIMURIUM, Strain/Indicator: TA98, Metabolic Activation: RAT, LIVER, S-9, AROCLOR 1254, Method: STANDARD PLATE) was “inactive; negative”; the mutagenic call (Test System: AMES SALMONELLA TYPHIMURIUM, Strain/Indicator: TA100, Metabolic Activation: NONE, Method: STANDARD PLATE) was “inactive; negative”. Moreover, the mutagenic call reads like this: (Test System: AMES SALMONELLA TYPHIMURIUM, Strain/Indicator: TA100, Metabolic Activation: RAT, LIVER, S-9, AROCLOR 1254, Method: STANDARD PLATE) “inactive; negative”; (Test System: AMES SALMONELLA TYPHIMURIUM, Strain/Indicator: TA1535, Metabolic Activation: NONE, Method: STANDARD PLATE) “inactive; negative”; (Test System: AMES SALMONELLA TYPHIMURIUM, Strain/Indicator: TA1535, Metabolic Activation: RAT, LIVER, S-9, AROCLOR 1254, Method: STANDARD PLATE) “inactive; negative”; (Test System: AMES SALMONELLA TYPHIMURIUM, Strain/Indicator: TA1537, Metabolic Activation: NONE, Method: STANDARD PLATE) “inactive; negative”; (Test System: AMES SALMONELLA TYPHIMURIUM, Strain/Indicator: TA1537, Metabolic Activation: RAT, LIVER, S-9, AROCLOR 1254, Method: STANDARD PLATE) “inactive; negative”; (Test System: AMES SALMONELLA TYPHIMURIUM, Strain/Indicator: TA1538, Metabolic Activation: NONE, Method: STANDARD PLATE) “inactive; negative”. Besides, the mutagenic call runs as follows: (Test System: AMES SALMONELLA TYPHIMURIUM, Strain/Indicator: TA1538, Metabolic Activation: RAT, LIVER, S-9, AROCLOR 1254, Method: STANDARD PLATE) “inactive; negative”; (Test System: E. COLI, Strain/Indicator: WP2, Metabolic Activation: NONE, Method: STANDARD PLATE) “inactive; negative”; (Test System: E. COLI, Strain/Indicator: WP2, Metabolic Activation: RAT, LIVER, S-9, AROCLOR 1254, Method: STANDARD PLATE) “inactive; negative”.
On to `O=[N+]([O-])C(Cl)Br` (stereo not given), for which the mutagenic call is, setting by setting: (Test System: Ames Salmonella typhimurium, Strain/Indicator: RSJ100, Metabolic Activation: None, Method: Standard plate) “active; positive (weak)”; (Test System: Ames Salmonella typhimurium, Strain/Indicator: RSJ100, Metabolic Activation: Rat, Liver, S-9, Aroclor, Method: Standard plate) “inactive; negative”; (Test System: Ames Salmonella typhimurium, Strain/Indicator: TA98, Metabolic Activation: None, Method: Standard plate) “active; positive (weak)”; (Test System: Ames Salmonella typhimurium, Strain/Indicator: TA98, Metabolic Activation: Rat, Liver, S-9, Aroclor, Method: Standard plate) “inactive; negative”; (Test System: Ames Salmonella typhimurium, Strain/Indicator: TA100, Metabolic Activation: None, Method: Standard plate) “inactive; negative”; (Test System: Ames Salmonella typhimurium, Strain/Indicator: TA100, Metabolic Activation: Rat, Liver, S-9, Aroclor, Method: Standard plate) “active; positive”. Also, the mutagenic call is, setting by setting: (Test System: Ames Salmonella typhimurium, Strain/Indicator: TA104, Metabolic Activation: None, Method: Standard plate) “inactive; negative”; (Test System: Ames Salmonella typhimurium, Strain/Indicator: TA104, Metabolic Activation: Rat, Liver, S-9, Aroclor, Method: Standard plate) “inactive; negative”; (Test System: Ames Salmonella typhimurium, Strain/Indicator: TPT100, Metabolic Activation: None, Method: Standard plate) “inactive; negative”.
`CC(C)(C)OO`: the mutagenic call is, setting by setting: (End Point: In vitro micronucleus, Test System: Chinese hamster V79 cells, Metabolic Activation: None) “active; positive (hibiscus tiliaceus l methanolic extract at doses above 0.010 mg/ml had”; (Test System: AMES SALMONELLA TYPHIMURIUM, Strain/Indicator: TA98, Metabolic Activation: HAMSTER, LIVER, S-9, AROCLOR 1254, Method: PREINCUBATION) “inactive; negative”; (Test System: AMES SALMONELLA TYPHIMURIUM, Strain/Indicator: TA98, Metabolic Activation: NONE, Method: PREINCUBATION) “inactive; negative”; (Test System: AMES SALMONELLA TYPHIMURIUM, Strain/Indicator: TA98, Metabolic Activation: RAT, LIVER, S-9, AROCLOR 1254, Method: PREINCUBATION) “inactive; negative”; (Test System: AMES SALMONELLA TYPHIMURIUM, Strain/Indicator: TA100, Metabolic Activation: HAMSTER, LIVER, S-9, AROCLOR 1254, Method: PREINCUBATION) “inactive; negative”; (Test System: AMES SALMONELLA TYPHIMURIUM, Strain/Indicator: TA100, Metabolic Activation: NONE, Method: PREINCUBATION) “inactive; negative”. Also, the mutagenic call (Test System: AMES SALMONELLA TYPHIMURIUM, Strain/Indicator: TA100, Metabolic Activation: RAT, LIVER, S-9, AROCLOR 1254, Method: PREINCUBATION) is “inactive; negative”; the mutagenic call (Test System: AMES SALMONELLA TYPHIMURIUM, Strain/Indicator: TA102, Metabolic Activation: NONE, Method: STANDARD PLATE) was “active; positive”; the mutagenic call (Test System: AMES SALMONELLA TYPHIMURIUM, Strain/Indicator: TA1535, Metabolic Activation: HAMSTER, LIVER, S-9, AROCLOR 1254, Method: PREINCUBATION) was “inactive; negative”; the mutagenic call (Test System: AMES SALMONELLA TYPHIMURIUM, Strain/Indicator: TA1535, Metabolic Activation: NONE, Method: PREINCUBATION) was “inactive; negative”; the mutagenic call (Test System: AMES SALMONELLA TYPHIMURIUM, Strain/Indicator: TA1535, Metabolic Activation: RAT, LIVER, S-9, AROCLOR 1254, Method: PREINCUBATION) is “inactive; negative”; the mutagenic call (Test System: AMES SALMONELLA TYPHIMURIUM, Strain/Indicator: TA1537, Metabolic Activation: HAMSTER, LIVER, S-9, AROCLOR 1254, Method: PREINCUBATION) was “active; positive”. In addition, the mutagenic call is, setting by setting: (Test System: AMES SALMONELLA TYPHIMURIUM, Strain/Indicator: TA1537, Metabolic Activation: NONE, Method: PREINCUBATION) “active; positive”; (Test System: AMES SALMONELLA TYPHIMURIUM, Strain/Indicator: TA1537, Metabolic Activation: RAT, LIVER, S-9, AROCLOR 1254, Method: PREINCUBATION) “active; positive”; (Test System: AMES SALMONELLA TYPHIMURIUM, Strain/Indicator: TA2638, Metabolic Activation: NONE, Method: STANDARD PLATE) “active; positive”; (Test System: AMES SALMONELLA TYPHIMURIUM, Strain/Indicator: TA2638A, Metabolic Activation: NONE, Method: STANDARD PLATE) “active; positive”; (Test System: E. COLI, Strain/Indicator: IC202, Metabolic Activation: NONE, Method: STANDARD PLATE) “active; positive”; (Test System: E. COLI, Strain/Indicator: IC203, Metabolic Activation: NONE, Method: STANDARD PLATE) “active; positive”. Besides, the mutagenic call (Test System: E. COLI, Strain/Indicator: IC5059, Metabolic Activation: NONE, Method: STANDARD PLATE) is “active; positive”; the mutagenic call (Test System: E. COLI, Strain/Indicator: IC5064, Metabolic Activation: NONE, Method: STANDARD PLATE) was “active; positive”; the mutagenic call (Test System: E. COLI, Strain/Indicator: IC5184, Metabolic Activation: NONE, Method: STANDARD PLATE) is “active; positive”; the mutagenic call (Test System: E. COLI, Strain/Indicator: IC5185, Metabolic Activation: NONE, Method: STANDARD PLATE) was “active; positive”; the mutagenic call (Test System: E. COLI, Strain/Indicator: WP2 (PKM101), Metabolic Activation: NONE, Method: STANDARD PLATE) is “active; positive”; the mutagenic call (Test System: E. COLI, Strain/Indicator: WP2 UVRA (PKM101), Metabolic Activation: NONE, Method: STANDARD PLATE) is “active; positive”. For the same compound, the mutagenic call was “active; positive. linalool, myrcene and eycalyptol did not inhibit mutagenesis” (Test System: E. coli, Strain/Indicator: WP2 IC185 trpE65, Metabolic Activation: None, Method: Plate incorporation (Test material solvent: 1 x M9 buffer)); “active; positive. linalool, myrcene and eycalyptol inhibited mutagenesis” (Test System: E. coli, Strain/Indicator: WP2 IC202 trpE65 oxyR/pKM101, Metabolic Activation: None, Method: Plate incorporation (Test material solvent: 1 x M9 buffer)).

Source of the values: PubChem BioAssay AID1259407 (Chemical Carcinogenesis Research Information System (CCRIS), 2018).
